Molecules are shown by their SMILES. Structures can show the parent of a compound that is named as a salt.

The first data set is described as follows: UV absorption spectrum (λmax, εmax, E1%) of the s-triazine UV screens in solution. To be noted: UV (DMSO/ethanol). The class given is physicochemical.
On to `O=C(O)C(=Cc1ccc(Nc2nc(O)nc(Nc3ccc(C=C(C(=O)O)C(=O)O)cc3)n2)cc1)C(=O)O` [2-(4-{4-[4-(2,2-dicarboxyvinyl)phenylamino]-6-hydroxy[1,3,5]triazin-2-ylamino}benzylidene)malonic acid], for which the E1% result is given as “E1% = 691”, the εmax entry is “εmax = 35 070” and the λmax entry is recorded as “λmax = 336 nm”.

Still in this data set, the particulars now being: UV (NaOH 0.1 N).
`O=C(O)C(=Cc1ccc(Nc2nc(Cl)nc(Nc3ccc(C=C(C(=O)O)C(=O)O)cc3)n2)cc1)C(=O)O` [2-(4-{4-chloro-6-[4-(2,2-dicarboxy-vinyl)phenylamino][1,3,5]triazin-2-ylamino}benzylidene)malonic acid]: the E1% result was “E1% = 932”, the εmax result is on record as “εmax = 64 960” and the λmax result is on record as “λmax = 320 nm”.

As to `O=C(O)C(=Cc1ccc(Nc2nc(O)nc(Nc3ccc(C=C(C(=O)O)C(=O)O)cc3)n2)cc1)C(=O)O` [Example 5, tetrasodium salt of 2-(4-{4-[4-(2,2-dicarboxyvinyl)phenylamino]-6-hydroxy[1,3,5]triazin-2-ylamino}benzylidene)malonic acid], the E1% result was “E1% = 852”, the εmax entry is given as “εmax = 50 700” and the λmax entry is reported as “λmax = 322 nm”.

Still in this data set, the particulars now being: UV (ethanol).
As to `O=C(O)C(=Cc1ccc(Nc2nc(Nc3ccc(C=C(C(=O)O)C(=O)O)cc3)nc(Nc3ccc(C=C(C(=O)O)C(=O)O)cc3)n2)cc1)C(=O)O` [acid derivative of Example 1, 2-(4-[4,6-bis[4-(2,2-dicarboxyvinyl)phenylamino][1,3,5]triazin-2-ylamino}benzylidene)malonic acid], the E1% entry is “E1% = 930”, the εmax result was “εmax = 64 820” and the λmax result was “λmax = 348 nm”.

The data set is the same for the next values; noted with them: UV (water).
For the compound `O=C(O)C(=Cc1ccc(Nc2nc(Nc3ccc(C=C(C(=O)O)C(=O)O)cc3)nc(Nc3ccc(C=C(C(=O)O)C(=O)O)cc3)n2)cc1)C(=O)O` [Example 1, hexasodium salt of 2-(4-{4,6-bis[4-(2,2-dicarboxyvinyl)phenylamino][1,3,5]triazin-2-ylamino}benzylidene)malonic acid], the E1% result is “E1% = 1 043”, the εmax entry is reported as “εmax = 86 428” and the λmax result is given as “λmax = 323 nm”.

With `O=C(O)C(=Cc1ccc(Nc2nc(Nc3ccc(C=C(C(=O)O)C(=O)O)cc3)nc(Nc3ccc(C=C(C(=O)O)C(=O)O)cc3)n2)cc1)C(=O)O` [Example 2, hexasodium salt of 2-(4-{4,6-bis[4-(2,2-dicarboxyvinyl)phenylamino][1,3,5]triazin-2-ylamino}benzylidene)malonic acid], the E1% result is reported as “E1% = 1 060”, the εmax result is recorded as “εmax = 87 820” and the λmax result is recorded as “λmax = 323 nm”.

Take `O=C(O)C(=Cc1ccc(Nc2nc(Nc3ccc(C=C(C(=O)O)C(=O)O)cc3)nc(Nc3ccc(C=C(C(=O)O)C(=O)O)cc3)n2)cc1)C(=O)O` [Example 3, hexapotassium salt of 2-(4-{4,6-bis[4-(2,2-dicarboxyvinyl)phenylamino][1,3,5]triazin-2-ylamino}benzylidene)malonic acid]: the E1% result was “E1% = 720”, the εmax result is reported as “εmax = 66 600” and the λmax entry is “λmax = 324 nm”.

Turning to `O=C(O)C(=Cc1ccc(Nc2nc(Nc3ccc(C=C(C(=O)O)C(=O)O)cc3)nc(Nc3ccc(C=C(C(=O)O)C(=O)O)cc3)n2)cc1)C(=O)O` [Example 4, hexatriethanolamine salt of 2-(4-{4,6-bis[4-(2,2-dicarboxyvinyl)phenylamino][1,3,5]triazin-2-ylamino}benzylidene)malonic acid], the E1% result was “E1% = 523”, the εmax result is given as “εmax = 83 250” and the λmax entry is given as “λmax = 322 nm”.

`COc1ccc(-c2nc(Nc3ccc(C=C(C(=O)O)C(=O)O)cc3)nc(Nc3ccc(C=C(C(=O)O)C(=O)O)cc3)n2)cc1` [Example 6, tetrasodium salt of 2-{4-[4-[4-(2,2-dicarboxyvinyl)phenylamino]-6-(4-methoxyphenyl)[1,3,5]triazin-2-ylamino]benzylidene}malonic acid]: the E1% result is listed as “E1% = 768”, the εmax result is listed as “εmax = 45 900” and the λmax entry is given as “λmax = 318 nm”.

In the case of `CCCCOc1nc(Nc2ccc(C=C(C(=O)O)C(=O)O)cc2)nc(Nc2ccc(C=C(C(=O)O)C(=O)O)cc2)n1` [Example 7, tetrasodium salt of 2-(4-{4-butoxy-6-[4-(2,2-dicarboxyvinyl)phenylamino][1,3,5]triazin-2-ylamino}benzylidene)malonic acid], the E1% result is listed as “E1% = 922”, the εmax result is “εmax = 51 960” and the λmax entry is “λmax = 317 nm”.

For the compound `O=C(O)/C=C/c1ccc(Nc2nc(Nc3ccc(C=C(C(=O)O)C(=O)O)cc3)nc(Nc3ccc(C=C(C(=O)O)C(=O)O)cc3)n2)cc1` [Example 9, pentasodium salt of 2-(4-{4-[4-(2-carboxyvinyl)phenylamino]-6-[4-(2,2-dicarboxy-vinyl)phenylamino][1,3,5]triazin-2-ylamino}benzylidene)malonic acid], the E1% entry is given as “E1% = 1 274”, the εmax entry is on record as “εmax = 83 070” and the λmax result is on record as “λmax = 327 nm”.

For `CC12CCC(/C(=C\c3ccc(Nc4nc(Nc5ccc(C=C(C(=O)O)C(=O)O)cc5)nc(Nc5ccc(C=C(C(=O)O)C(=O)O)cc5)n4)cc3)C1=O)C2(C)C` (stereo not drawn) [Example 10, tetrasodium salt of 2-(4-{4-[4-(2-dicarboxyvinyl)phenylamino]-6-[4-(4,7,7-trimethyl-3-oxobicyclo[2.2.1]hept-2-ylidenemethyl)phenylamino][1,3,5]triazin-2-ylamino}benzylidene)malonic acid], the E1% result is recorded as “E1% = 963”, the εmax result is listed as “εmax = 69 210” and the λmax result is listed as “λmax = 329 nm”.

For the compound `CC12CCC(/C(=C\c3ccc(Nc4nc(Nc5ccc(C=C(C(=O)O)C(=O)O)cc5)nc(Nc5ccc(/C=C6/C(=O)C7(C)CCC6C7(C)C)cc5)n4)cc3)C1=O)C2(C)C` [Example 11, disodium salt of 2-(4-{[4,6-bis({4-(4,7,7-trimethyl-3-oxobicyclo[2.2.1]hept-2-ylidene)methyl]phenyl}amino)[1,3,5]triazin-2-ylamino}benzylidene)malonic acid], the E1% entry is reported as “E1% = 1 238”, the εmax result is given as “εmax = 98 170” and the λmax result is reported as “λmax = 353 nm”.

The record behind these values is patent publication US7534421B2, “s-Triazine compounds bearing at least one para-aminobenzalmalonic salt substituent and photoprotective cosmetic compositions comprised thereof” (L'Oreal, priority 2003, dated 2009).
